Molecular target: T1, N-formyl peptide receptor 2 (Homo sapiens, UniProt P25090)
T1 sequence (P25090 whole entry): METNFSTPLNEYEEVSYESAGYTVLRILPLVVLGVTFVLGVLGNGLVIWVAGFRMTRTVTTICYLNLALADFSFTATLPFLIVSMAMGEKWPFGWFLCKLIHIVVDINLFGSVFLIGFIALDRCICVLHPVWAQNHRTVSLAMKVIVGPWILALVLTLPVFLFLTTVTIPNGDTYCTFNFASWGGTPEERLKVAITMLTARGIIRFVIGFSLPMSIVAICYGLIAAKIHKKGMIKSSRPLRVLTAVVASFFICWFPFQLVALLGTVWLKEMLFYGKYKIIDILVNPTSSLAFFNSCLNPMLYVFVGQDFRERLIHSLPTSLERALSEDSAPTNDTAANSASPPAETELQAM
Test: human FPR2 ligand displacement potency – cell-based, flow cytometry, Ki from IC50, selectivity assay for FPR1 ligand SAR project, dose response (AID 723)

Row | Structure (SMILES) | Ki [µM]
1 | CC(=O)C1C(=O)C(=O)N(CCc2c(C)[nH]c3ccccc23)C1c1cccc(F)c1 (stereo unspecified) | > 40.3
2 | COc1ccc(C(=O)C2C(=O)C(=O)N(CCc3c[nH]c4ccccc34)C2c2ccc(C(C)C)cc2)cc1 (stereo unspecified) | > 40.3
3 | COc1ccc(C2C(C(=O)c3cccs3)C(=O)C(=O)N2CCCn2ccnc2)cc1 (stereo unspecified) [1-(3-imidazol-1-ylpropyl)-2-(4-methoxyphenyl)-4-oxidanyl-3-thiophen-2-ylcarbonyl-2H-pyrrol-5-one] | > 40.3
4 | COc1cc(C2C(C(C)=O)C(=O)C(=O)N2c2ccc(Br)cc2)ccc1O (stereo unspecified) [1-(4-bromophenyl)-3-ethanoyl-2-(3-methoxy-4-oxidanyl-phenyl)-4-oxidanyl-2H-pyrrol-5-one] | > 40.3
5 | COc1ccc(C2C(C(=O)c3cccs3)C(=O)C(=O)N2CCN2CCOCC2)c(OC)c1 (stereo unspecified) [2-(2,4-dimethoxyphenyl)-1-(2-morpholin-4-ylethyl)-4-oxidanyl-3-thiophen-2-ylcarbonyl-2H-pyrrol-5-one] | > 40.3
6 | COc1ccc(C2C(C(=O)c3ccco3)C(=O)C(=O)N2CCCN2CCOCC2)cc1OC (stereo unspecified) [2-(3,4-dimethoxyphenyl)-3-(furan-2-carbonyl)-4-hydroxy-1-(3-morpholin-4-ylpropyl)-2H-pyrrol-5-one] | > 40.3
7 | O=C1C(=O)N(CCc2ccccc2)C(c2ccc(Cl)cc2)C1C(=O)c1cccs1 (stereo unspecified) [2-(4-chlorophenyl)-4-hydroxy-1-(2-phenylethyl)-3-(thiophene-2-carbonyl)-2H-pyrrol-5-one] | > 40.3
8 | COc1cc(C2C(C(=O)c3cc4ccccc4o3)C(=O)C(=O)N2CCN(C)C)ccc1O (stereo unspecified) [3-(1-benzofuran-2-carbonyl)-1-[2-(dimethylamino)ethyl]-4-hydroxy-2-(4-hydroxy-3-methoxyphenyl)-2H-pyrrol-5-one] | > 40.3
9 | COc1ccc(C2C(C(=O)c3cc4ccccc4o3)C(=O)C(=O)N2CCN(C)C)cc1OC (stereo unspecified) [3-(1-benzofuran-2-carbonyl)-2-(3,4-dimethoxyphenyl)-1-[2-(dimethylamino)ethyl]-4-hydroxy-2H-pyrrol-5-one] | > 40.3
10 | O=C1C(=O)N(CCCn2ccnc2)C(c2cccnc2)C1C(=O)c1cc2ccccc2o1 (stereo unspecified) [3-(1-benzofuran-2-carbonyl)-4-hydroxy-1-(3-imidazol-1-ylpropyl)-2-pyridin-3-yl-2H-pyrrol-5-one] | > 40.3
11 | O=C1C(=O)N(CCCN2CCOCC2)C(c2cccnc2)C1C(=O)c1cc2ccccc2o1 (stereo unspecified) [3-(1-benzofuran-2-carbonyl)-4-hydroxy-1-(3-morpholin-4-ylpropyl)-2-pyridin-3-yl-2H-pyrrol-5-one] | > 40.3
12 | O=C1C(=O)N(CCCn2ccnc2)C(c2cccnc2)C1C(=O)c1ccco1 (stereo unspecified) [3-(furan-2-carbonyl)-4-hydroxy-1-(3-imidazol-1-ylpropyl)-2-pyridin-3-yl-2H-pyrrol-5-one] | > 40.3
13 | COc1ccc(OC)c(C2C(C(=O)c3ccc(C)cc3)C(=O)C(=O)N2CCC(=O)O)c1 (stereo unspecified) [3-[(3E)-2-(2,5-dimethoxyphenyl)-3-[(4-methylphenyl)-oxidanyl-methylidene]-4,5-bis(oxidanylidene)pyrrolidin-1-yl]propanoic acid] | > 40.3
14 | O=C(O)CCCN1C(=O)C(=O)C(C(=O)c2ccccc2)C1/C=C/c1ccccc1 (stereo unspecified) [4-[(4E)-2,3-bis(oxidanylidene)-4-[oxidanyl(phenyl)methylidene]-5-[(E)-2-phenylethenyl]pyrrolidin-1-yl]butanoic acid] | > 40.3
15 | COc1ccc(C2C(C(=O)c3ccco3)C(=O)C(=O)N2CCN2CCOCC2)c(OC)c1 (stereo unspecified) [5-(2,4-dimethoxyphenyl)-4-(furan-2-carbonyl)-3-hydroxy-1-(2-morpholinoethyl)-1H-pyrrol-2(5H)-one] | > 40.3
16 | COCCN1C(=O)C(=O)C(C(=O)c2ccccc2)C1c1ccc(C(C)C)cc1 (stereo unspecified) [(4E)-1-(2-methoxyethyl)-4-[oxidanyl(phenyl)methylidene]-5-(4-propan-2-ylphenyl)pyrrolidine-2,3-dione] | > 40.3
17 | COCCN1C(=O)C(=O)C(C(=O)c2ccccc2)C1c1ccccc1OC (stereo unspecified) [(4E)-1-(2-methoxyethyl)-5-(2-methoxyphenyl)-4-[oxidanyl(phenyl)methylidene]pyrrolidine-2,3-dione] | > 40.3
18 | COc1ccc(OC)c(C2C(C(=O)c3ccccc3)C(=O)C(=O)N2c2ccc(C)c(Cl)c2)c1 (stereo unspecified) [(4E)-1-(3-chloranyl-4-methyl-phenyl)-5-(2,5-dimethoxyphenyl)-4-[oxidanyl(phenyl)methylidene]pyrrolidine-2,3-dione] | > 40.3

Row | Structure (SMILES) | Ki [µM]
19 | COc1ccc(C2C(C(=O)c3ccccc3)C(=O)C(=O)N2c2cccc(Cl)c2)c(OC)c1 (stereo unspecified) [(4E)-1-(3-chlorophenyl)-5-(2,4-dimethoxyphenyl)-4-[hydroxy(phenyl)methylene]pyrrolidine-2,3-quinone] | > 40.3
20 | COCCCN1C(=O)C(=O)C(C(=O)c2ccccc2)C1c1ccc(C(C)C)cc1 (stereo unspecified) [(4E)-1-(3-methoxypropyl)-4-[oxidanyl(phenyl)methylidene]-5-(4-propan-2-ylphenyl)pyrrolidine-2,3-dione] | > 40.3
21 | Cc1ccc(C(=O)C2C(=O)C(=O)N(c3nnc(C)s3)C2c2ccc(C(C)C)cc2)cc1 (stereo unspecified) [(4E)-4-[(4-methylphenyl)-oxidanyl-methylidene]-1-(5-methyl-1,3,4-thiadiazol-2-yl)-5-(4-propan-2-ylphenyl)pyrrolidine-2,3-dione] | > 40.3
22 | CC(C)c1ccc(C2C(C(=O)c3ccccc3)C(=O)C(=O)N2Cc2cccnc2)cc1 (stereo unspecified) [(4E)-4-[hydroxy(phenyl)methylene]-5-p-cumenyl-1-(3-pyridylmethyl)pyrrolidine-2,3-quinone] | > 40.3
23 | COc1ccc(C2C(C(=O)c3ccccc3)C(=O)C(=O)N2CCCn2ccnc2)c(OC)c1 (stereo unspecified) [(4E)-5-(2,4-dimethoxyphenyl)-1-(3-imidazol-1-ylpropyl)-4-[oxidanyl(phenyl)methylidene]pyrrolidine-2,3-dione] | > 40.3
24 | COc1ccc(C2C(C(=O)c3ccc(C)cc3)C(=O)C(=O)N2Cc2cccnc2)c(OC)c1 (stereo unspecified) [(4E)-5-(2,4-dimethoxyphenyl)-4-[(4-methylphenyl)-oxidanyl-methylidene]-1-(pyridin-3-ylmethyl)pyrrolidine-2,3-dione] | > 40.3
25 | COCCN1C(=O)C(=O)C(C(=O)c2ccccc2)C1c1cc(OC)ccc1OC (stereo unspecified) [(4E)-5-(2,5-dimethoxyphenyl)-1-(2-methoxyethyl)-4-[oxidanyl(phenyl)methylidene]pyrrolidine-2,3-dione] | > 40.3
26 | COc1ccc(OC)c(C2C(C(=O)c3ccccc3)C(=O)C(=O)N2c2cccnc2)c1 (stereo unspecified) [(4E)-5-(2,5-dimethoxyphenyl)-4-[hydroxy(phenyl)methylene]-1-(3-pyridyl)pyrrolidine-2,3-quinone] | > 40.3
27 | COCCCN1C(=O)C(=O)C(C(=O)c2ccccc2)C1c1ccc(O)c(OC)c1 (stereo unspecified) [(4E)-5-(3-methoxy-4-oxidanyl-phenyl)-1-(3-methoxypropyl)-4-[oxidanyl(phenyl)methylidene]pyrrolidine-2,3-dione] | > 40.3
28 | O=C1C(=O)N(CN2CCOCC2)C(c2ccc(Br)cc2)C1C(=O)c1ccccc1 (stereo unspecified) [(4E)-5-(4-bromophenyl)-1-(morpholin-4-ylmethyl)-4-[oxidanyl(phenyl)methylidene]pyrrolidine-2,3-dione] | > 40.3
29 | O=C1NC(c2ccc(Br)cc2)C(C(=O)c2ccc(Cl)cc2)C1=O (stereo unspecified) [(4E)-5-(4-bromophenyl)-4-[(4-chlorophenyl)-hydroxy-methylene]pyrrolidine-2,3-quinone] | > 40.3
30 | Cc1ccc(C(=O)C2C(=O)C(=O)N(Cc3cccnc3)C2c2ccc(Br)cc2)cc1 (stereo unspecified) [(4E)-5-(4-bromophenyl)-4-[(4-methylphenyl)-oxidanyl-methylidene]-1-(pyridin-3-ylmethyl)pyrrolidine-2,3-dione] | > 40.3
31 | Cc1ccc(N2C(=O)C(=O)C(C(=O)c3ccccc3)C2c2cccc(F)c2)cc1Br (stereo unspecified) [(4Z)-1-(3-bromanyl-4-methyl-phenyl)-5-(3-fluorophenyl)-4-[oxidanyl(phenyl)methylidene]pyrrolidine-2,3-dione] | > 40.3
32 | CCCCCCN1C(=O)C(=O)C(C(=O)c2ccccc2)C1c1ccc(O)c(OC)c1 (stereo unspecified) [(4Z)-1-hexyl-5-(3-methoxy-4-oxidanyl-phenyl)-4-[oxidanyl(phenyl)methylidene]pyrrolidine-2,3-dione] | > 40.3
33 | COc1ccc(C(=O)C2C(=O)C(=O)NC2c2ccc(OC)cc2OC)cc1 (stereo unspecified) [(4Z)-5-(2,4-dimethoxyphenyl)-4-[(4-methoxyphenyl)-oxidanyl-methylidene]pyrrolidine-2,3-dione] | > 40.3
34 | CCCCCCOc1cccc(N2C(=O)C(=O)C(C(=O)c3ccccc3)C2c2cccc(F)c2)c1 (stereo unspecified) [(4Z)-5-(3-fluorophenyl)-1-(3-hexoxyphenyl)-4-[hydroxy(phenyl)methylene]pyrrolidine-2,3-quinone] | > 40.3
35 | O=C1C(=O)N(c2ccc(F)cc2)C(c2ccc(Br)cc2)C1C(=O)c1ccccc1 (stereo unspecified) [(4Z)-5-(4-bromophenyl)-1-(4-fluorophenyl)-4-[hydroxy(phenyl)methylene]pyrrolidine-2,3-quinone] | > 40.3
36 | N#Cc1c(N=C(CC(=O)c2ccccc2)C(=O)O)sc2c1CCC2 [(Z)-2-[(3-cyano-5,6-dihydro-4H-cyclopenta[b]thiophen-2-yl)amino]-4-keto-4-phenyl-but-2-enoic acid] | > 40.3
